How the values were obtained:
[1] = biological target: T1, PRMT5 (Homo sapiens, UniProt O14744); test: PRMT5 biochemical IC50 assay with SAM as cofactor; details: PRMT5, SAM as cofactor; read-out: SAM IC50
T1 construct: purchased Viva (custom protein)

[2] = biological target: T1, PRMT5; test: PRMT5 biochemical IC50 assay with no cofactor; details: PRMT5, no cofactor
From the text: Table 1 indicates IC50 values (μM) against PRMT5 for exemplary compounds in the presence of SAM as cofactor, with no cofactor, and with MTA as cofactor, respectively (columns 4-6). […] Ki values can be calculated from the IC50 values as described in the Examples section. As detailed in the Examples section, for the assay performed in the presence of SAM, IC50=Ki×1.5 (Ki=IC50/1.5).

[3] = biological target: T1, PRMT5; test: PRMT5 biochemical IC50 assay with MTA as cofactor; details: PRMT5, MTA as cofactor; read-out: MTA IC50
[4] = test system: HAP1 MTAP-intact cell line; test: SDMA in-cell western assay, HAP1 MTAP-intact; assay type: cell-based; set-up: MTAP HAP1 intact IC50: scale not given here; details: HAP1 MTAP-intact; for IC50: Homo sapiens, HAP1, SDMA in-cell western, read-out: MTAP HAP1 intact IC50
Procedure, shortened: (§1)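 MTAP-null vs endogenous-MTAP HAP1 isogenic cells; in-cell western SDMA readout; IC50 per line.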

[5] = test system: HAP1 MTAP-deleted cell line; test: SDMA in-cell western assay, HAP1 MTAP-deleted; assay type: cell-based; details: for IC50: Homo sapiens, HAP1, SDMA in-cell western, HAP1 MTAP-deleted; for MTAP intact/deleted ratio: SDMA in-cell western
Procedure, shortened: as §1

[6] = test system: HAP1 MTAP-deleted cell line; test: Viability assay, MTAP-deleted cell line; assay type: cell-based; details: Homo sapiens, read-out: HAP1 MTAP deleted viability
From the text: Table 1 additionally indicates IC50 values in a viability assay for the MTAP-deleted cell line (column 10), indicating the effect of treatment with compound on cell survival.

[7] = read-out: HAP1 MTAP deleted IC50
[8] = IC50 ratio HAP1 MTAP-intact / HAP1 MTAP-deleted
[9] = HAP1, viability assay, MTAP-deleted cell line
[10] = read-out: HAP 1 MTAP deleted IC50
[11] = HAP1, viability IC50, MTAP-deleted cell line
[12] = read-out: No Cofactor/ rel IC50
[13] = HAP1, viability, HAP1 MTAP-deleted cell line
[14] = HAP1, viability assay, HAP1 MTAP-deleted

T1 sequence (O14744 whole entry): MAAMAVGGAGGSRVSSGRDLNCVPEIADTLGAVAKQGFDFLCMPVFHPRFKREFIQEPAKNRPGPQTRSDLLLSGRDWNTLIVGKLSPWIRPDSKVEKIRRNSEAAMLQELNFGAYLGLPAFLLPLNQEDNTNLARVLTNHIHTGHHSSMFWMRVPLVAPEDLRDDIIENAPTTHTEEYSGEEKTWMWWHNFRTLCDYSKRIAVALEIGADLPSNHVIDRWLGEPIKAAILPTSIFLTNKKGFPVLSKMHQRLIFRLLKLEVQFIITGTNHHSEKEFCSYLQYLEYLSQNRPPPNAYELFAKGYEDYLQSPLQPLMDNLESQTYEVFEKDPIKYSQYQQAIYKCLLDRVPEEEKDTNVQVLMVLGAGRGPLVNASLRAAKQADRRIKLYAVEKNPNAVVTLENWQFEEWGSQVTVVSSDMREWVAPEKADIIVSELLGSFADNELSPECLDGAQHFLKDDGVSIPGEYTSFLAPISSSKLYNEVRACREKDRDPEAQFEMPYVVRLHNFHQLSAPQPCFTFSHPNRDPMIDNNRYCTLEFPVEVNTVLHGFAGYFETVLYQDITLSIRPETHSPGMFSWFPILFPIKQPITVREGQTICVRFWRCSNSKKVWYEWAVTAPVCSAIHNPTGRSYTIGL
T1 sequence (Q9BQA1 whole entry partner): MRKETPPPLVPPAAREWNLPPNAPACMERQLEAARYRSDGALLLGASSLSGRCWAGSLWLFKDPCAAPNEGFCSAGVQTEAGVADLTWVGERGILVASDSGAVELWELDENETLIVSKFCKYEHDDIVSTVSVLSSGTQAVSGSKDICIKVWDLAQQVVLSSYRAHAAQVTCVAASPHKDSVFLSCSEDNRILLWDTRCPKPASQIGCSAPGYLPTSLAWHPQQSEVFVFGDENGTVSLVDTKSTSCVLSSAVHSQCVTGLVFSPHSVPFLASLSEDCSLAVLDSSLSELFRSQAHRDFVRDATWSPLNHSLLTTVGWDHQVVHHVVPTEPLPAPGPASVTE

`C[C@@H]1CC[C@@H](c2ccc(O)c(F)c2)N(C(=O)C(=O)Nc2cncc(C(N)=O)c2)C1` (single isomer, unassigned) [Compound 355] gave an IC50 [1] of over 0.5 µM, an IC50 ([2]; read-out: No Cofactor/rel IC50) of over 0.5 µM and an IC50 [3] of over 0.5 µM. For the same compound, the IC50 [4] was over 1 µM, the IC50 [5, 7] was over 1 µM and the MTAP intact/deleted ratio [5, 8] was “C (an IC50 ratio of less than 3 fold)”. It also gave an IC50 [6, 9] of over 10 µM.

`CNc1ccc([C@@H]2CCC[C@H](C)N2C(=O)C(=O)Nc2cncc(C(N)=O)c2)cn1` (racemic) [Compound 561, 5-[[2-[(2S,6S)-2-methyl-6-[6-(methylamino)-3-pyridyl]-1-piperidyl]-2-oxo-acetyl]amino]pyridine-3-carboxamide] gave an IC50 [1] of 0.05 to 0.5 µM, an IC50 ([2]; read-out: No Cofactor/rel IC50) of 0.05 to 0.5 µM and an IC50 [3] of 0.05 to 0.5 µM. The IC50 [4] was over 1 µM, the IC50 [5, 10] was 0.1 to 1 µM and the MTAP intact/deleted ratio [5, 8] was “A (an IC50 ratio greater than or equal to 10 fold)”. It also gave an IC50 [6, 11] of over 10 µM.

`C[C@@H]1CC[C@@H](c2cccs2)N(C(=O)C(=O)Nc2cncc(C(N)=O)c2)C1` (single isomer, unassigned) [Compound 201] gave an IC50 [1] of over 0.5 µM, an IC50 ([2]; read-out: No Cofactor/rel IC50) of over 0.5 µM and an IC50 [3] of over 0.5 µM. For the same compound, the IC50 [4] was over 1 µM, the IC50 [5, 7] was over 1 µM and the MTAP intact/deleted ratio [5, 8] was “C (an IC50 ratio of less than 3 fold)”. For the same compound, the IC50 [6, 9] was over 10 µM.

For `CCc1cc(NC(=O)C(=O)N2C[C@@H](C)CC[C@@H]2c2cc(Cl)cc(OCCN(C)C)c2)cnc1N` [Compound 1247, N-(6-amino-5-ethylpyridin-3-yl)-2-((2R,5S)-2-(3-chloro-5-(2-(dimethylamino)ethoxy)phenyl)-5-methylpiperidin-1-yl)-2-oxoacetamide], the IC50 [1] was under 0.05 µM, the IC50 [2, 12] was under 0.05 µM and the IC50 [3] was under 0.05 µM. The IC50 [4] was 0.1 to 1 µM, the IC50 [5, 10] was under 0.1 µM and the “MTAP intact/deleted ratio” value [5, 8] was “A (an IC50 ratio greater than or equal to 10 fold)”. It also gave an IC50 [6, 13] of under 1 µM.

Compound `Cc1ccc([C@@H]2CC[C@@H](C)CN2C(=O)C(=O)Nc2cncc(C(N)=O)c2)cc1Cl` (single isomer, unassigned) [Compound 485] has an IC50 [1] of over 0.5 µM, an IC50 ([2]; read-out: No Cofactor/rel IC50) of over 0.5 µM and an IC50 [3] of over 0.5 µM. For the same compound, the IC50 [4] was over 1 µM, the IC50 [5, 7] was over 1 µM and the MTAP intact/deleted ratio [5, 8] was “C (an IC50 ratio of less than 3 fold)”. The IC50 [6, 9] was over 10 µM.

`C[C@@H]1CN(C(=O)C(=O)Nc2cncc(C(N)=O)c2)[C@@H](c2ccc(F)cc2)C(F)(F)C1` (racemic) [Compound 836, 5-[[2-[(2S,5S)-3,3-difluoro-2-(4-fluorophenyl)-5-methyl-1-piperidyl]-2-oxo-acetyl]amino]pyridine-3-carboxamide] gave an IC50 [1] of 0.05 to 0.5 µM, an IC50 ([2]; read-out: No Cofactor/rel IC50) of 0.05 to 0.5 µM and an IC50 [3] of under 0.05 µM. For the same compound, the “MTAP HAP1 intact IC50” value ([4]; SDMA in-cell western) was “C*”, the IC50 [5, 7] was 0.1 to 1 µM and the MTAP intact/deleted ratio [5, 8] was “A (an IC50 ratio greater than or equal to 10 fold)”. The IC50 [6, 14] was 1 to 10 µM.

`COc1ncc(NC(=O)C(=O)N2C[C@H](C)CC[C@H]2c2ccc(C)cn2)cc1C(N)=O` (racemic) [Compound 932, 2-Methoxy-5-[[2-[(2R,5S)-5-methyl-2-(5-methyl-2-pyridyl)-1-piperidyl]-2-oxo-acetyl]amino]pyridine-3-carboxamide] showed an IC50 [1] of 0.05 to 0.5 µM, an IC50 ([2]; read-out: No Cofactor/rel IC50) of 0.05 to 0.5 µM and an IC50 [3] of 0.05 to 0.5 µM. The IC50 [4] was over 1 µM, the IC50 [5, 10] was under 0.1 µM and the MTAP intact/deleted ratio [5, 8] was “A (an IC50 ratio greater than or equal to 10 fold)”. For the same compound, the IC50 [6, 9] was 1 to 10 µM.

Work on `C[C@H]1CC[C@H](c2cc3cn[nH]c3cc2F)N(C(=O)C(=O)Nc2cncc(C(N)=O)c2)C1` (single isomer, unassigned) [Compound 553] yielded an IC50 [1] of 0.05 to 0.5 µM, an IC50 ([2]; read-out: No Cofactor/rel IC50) of 0.05 to 0.5 µM and an IC50 [3] of under 0.05 µM. The IC50 [4] was over 1 µM, the IC50 [5, 10] was 0.1 to 1 µM and the MTAP intact/deleted ratio [5, 8] was “A (an IC50 ratio greater than or equal to 10 fold)”. For the same compound, the IC50 [6, 11] was 1 to 10 µM.

Compound `CCc1ccc([C@@H]2CC[C@@H](C)CN2C(=O)C(=O)Nc2cnc(N)c(C)c2)cn1` (single isomer, unassigned) [Compound 1013] has an IC50 [1] of 0.05 to 0.5 µM, an IC50 ([2]; read-out: No Cofactor/rel IC50) of 0.05 to 0.5 µM and an IC50 [3] of under 0.05 µM. For the same compound, the IC50 [4] was 0.1 to 1 µM, the IC50 [5, 10] was under 0.1 µM and the MTAP intact/deleted ratio [5, 8] was “B (an IC50 ratio greater than or equal to 3 fold but lower than 10 fold)”. The IC50 [6, 9] was 1 to 10 µM.

Work on `C[C@@H]1CC[C@@H](c2ccc(Cl)c(Cl)c2)N(C(=O)C(=O)Nc2cncc(C(N)=O)c2)C1` (single isomer, unassigned) [Compound 489] yielded an IC50 [1] of over 0.5 µM, an IC50 ([2]; read-out: No Cofactor/rel IC50) of over 0.5 µM and an IC50 [3] of over 0.5 µM. For the same compound, the IC50 [4] was over 1 µM, the IC50 [5, 7] was over 1 µM and the MTAP intact/deleted ratio [5, 8] was “C (an IC50 ratio of less than 3 fold)”. For the same compound, the IC50 [6, 9] was over 10 µM.

In the case of `C[C@@H]1C[C@H](c2ccccc2)N(C(=O)C(=O)Nc2cncc(C(N)=O)c2)C[C@H]1C` (racemic) [Compound 231, 5-[[2-[(2R,4R,5S)-4,5-dimethyl-2-phenyl-1-piperidyl]-2-oxo-acetyl]amino]pyridine-3-carboxamide], the IC50 [1] is reported as 0.05 to 0.5 µM, the IC50 ([2]; read-out: No Cofactor/rel IC50) is reported as 0.05 to 0.5 µM and the IC50 [3] is reported as under 0.05 µM. The IC50 [4] was over 1 µM, the IC50 [5, 7] was 0.1 to 1 µM and the MTAP intact/deleted ratio [5, 8] was “A (an IC50 ratio greater than or equal to 10 fold)”. The IC50 [6, 9] was over 10 µM.

Compound `Cc1cc(NC(=O)C(=O)N2C[C@@H](C)CC[C@@H]2c2ccc3sc(C4CCN(C5CC5)CC4)nc3c2)cnc1N` [Compound 1181, N-(6-amino-5-methylpyridin-3-yl)-2-((2R,5S)-2-(2-(1-cyclopropylpiperidin-4-yl)benzo[d]thiazol-5-yl)-5-methylpiperidin-1-yl)-2-oxoacetamide] has an IC50 [1] of under 0.05 µM, an IC50 ([2]; read-out: No Cofactor/rel IC50) of under 0.05 µM and an IC50 [3] of under 0.05 µM. For the same compound, the IC50 [4] was under 0.1 µM, the IC50 [5, 7] was under 0.1 µM and the MTAP intact/deleted ratio ([5]; IC50 ratio HAP1 MTAP-intact vs HAP1 MTAP-deleted) was “B (an IC50 ratio greater than or equal to 3 fold but lower than 10 fold)”. For the same compound, the IC50 [6, 9] was under 1 µM.

Compound `NC(=O)c1cncc(NC(=O)C(=O)N2CCC3(CC2)CCS(=O)(=O)CC3)c1` [Compound 195, 5-(2-(3,3-Dioxido-3-thia-9-azaspiro[5.5]undecan-9-yl)-2-oxoacetamido)nicotinamide] has an IC50 [1] of over 0.5 µM, an IC50 ([2]; read-out: No Cofactor/rel IC50) of over 0.5 µM and an IC50 [3] of 0.05 to 0.5 µM. The IC50 [4] was over 1 µM, the IC50 [5, 7] was over 1 µM and the MTAP intact/deleted ratio [5, 8] was “C (an IC50 ratio of less than 3 fold)”. For the same compound, the IC50 [6, 9] was over 10 µM.

In the case of `COc1ncc(NC(=O)C(=O)N2C[C@@H](C)CC[C@@H]2C2CCCCC2)cc1C(N)=O` (single isomer, unassigned) [Compound 369], the IC50 [1] is reported as 0.05 to 0.5 µM, the IC50 ([2]; read-out: No Cofactor/rel IC50) is reported as 0.05 to 0.5 µM and the IC50 [3] is reported as under 0.05 µM. For the same compound, the IC50 [4] was over 1 µM, the IC50 [5, 7] was 0.1 to 1 µM and the MTAP intact/deleted ratio [5, 8] was “A (an IC50 ratio greater than or equal to 10 fold)”. The IC50 [6, 9] was 1 to 10 µM.

`CCc1cc(NC(=O)C(=O)N2C[C@@H](C)CC[C@@H]2c2ccc(N3CCC4(CCCN(C)C4)CC3)cc2)cnc1N` (single isomer, unassigned) [Compound 1243] showed an IC50 [1] of 0.05 to 0.5 µM, an IC50 [2, 12] of under 0.05 µM and an IC50 [3] of under 0.05 µM. The IC50 [4] was 0.1 to 1 µM, the IC50 [5, 10] was under 0.1 µM and the “MTAP intact/deleted ratio” value [5, 8] was “A (an IC50 ratio greater than or equal to 10 fold)”. The IC50 [6, 13] was under 1 µM.

Compound `[H][C@@]1([C@]2([H])C[C@@]3(C[C@H](O)C3)C2)CC[C@@H](C)CN1C(=O)C(=O)Nc1cnc(N)c(C)c1` (single isomer, unassigned) [Compound 767] has an IC50 [1] of 0.05 to 0.5 µM, an IC50 ([2]; read-out: No Cofactor/rel IC50) of over 0.5 µM and an IC50 [3] of 0.05 to 0.5 µM. For the same compound, the IC50 [4] was over 1 µM, the IC50 [5, 7] was over 1 µM and the MTAP intact/deleted ratio [5, 8] was “B (an IC50 ratio greater than or equal to 3 fold but lower than 10 fold)”. The IC50 [6, 14] was over 10 µM.
